The text below walks through data of paper PMC8561388 (mBio, 2021).

Data set [1] has as its system attenuated OP-CDV strain (OP^neon/nLucP). Kind of data set: microbe, parasite or virus in culture. It counts as cell-based, canine distemper virus.
Data set [2] concerns wild-type A75/17-CDV (A75^neon/nLucP). Kind of data set: microbe, parasite or virus in culture. To be noted: canine distemper virus, Vero-cSLAM cells. It is filed as cell-based.
For data set [3], the system named is rNiV-EGFP. Kind of data set: microbe, parasite or virus in culture. To be noted: Henipavirus nipahense. It is filed as cell-based, Nipah virus.
Data set [4] deals with PIV-5^neon/nLucP. The data set can be described thus: microbe, parasite or virus in culture. Conditions: PIV-5, Vero cells. It is filed as cell-based, parainfluenza virus type 5.
For data set [5], the system named is RSV-GFP. Kind of data set: microbe, parasite or virus in culture. It is filed as cell-based, respiratory syncytial virus. To be noted: HEp-2 cells, plaque reduction.
Data set [6] can be described thus: Cell viability (cytotoxicity), Vero. It counts as cell-based. To be noted: monkey, Vero cells.
Data set [7] can be described thus: Cell viability (cytotoxicity), MDCK. It counts as cell-based, Canine. To be noted: dog, MDCK cells.
A short description of data set [8]: Cell viability (cytotoxicity), P114. Conditions: dog, P114 cells. It is filed as cell-based, Canine.
Data set [9] can be described thus: Cell viability (cytotoxicity), PGSA745-EFNB2. It counts as cell-based. Conditions: hamster, PGSA745-EFNB2 cells.
A short description of data set [10]: Cell viability (cytotoxicity), HEp-2. It counts as cell-based. Conditions: human, HEp-2 cells.
For data set [11], the system named is Vero-cSLAM cells. To be noted: 42 h incubation, flow cytometry. A general note: In flow cytometry, cells or beads pass a laser one at a time.
A short description of data set [12]: in vitro. To be noted: monkey, Vero-cSLAM cells.
The subject of data set [13] is MeV (Edm). Kind of data set: microbe, parasite or virus in culture. It is filed as cell-based. Conditions: Measles morbillivirus.
In data set [14] the test system is MeV (ICB). The data set can be described thus: microbe, parasite or virus in culture. Conditions: Measles morbillivirus, NCI-H358 cells. It is filed as cell-based.
The test system of data set [15] is VSV. It is filed as cell-based, vesicular stomatitis virus. To be noted: Vero cells.
A short description of data set [16]: Cell viability (cytotoxicity), Vero-cNectin-4. It counts as cell-based. To be noted: monkey, Vero-cNectin-4 cells.
Data set [17] is described as follows: Cell viability (cytotoxicity), Bsr-T7. It counts as cell-based. To be noted: hamster, Bsr-T7 cells.
The nature of data set [18]: Cell viability (cytotoxicity), NCI-H358. It counts as cell-based. To be noted: human, NCI-H358 cells.
For data set [19], the target named is CDV polymerase complex (Canine distemper virus, UniProt P06940+P24658). The data set can be described thus: cell-based. It counts as cell-based. To be noted: for effect on minigenome luciferase activity (RdRp complex activity): compound 1 10 μM, compound 3 50 μM, Bsr-T7 cells, 48 h.
Data set [20] relates to MeV polymerase complex. It is filed as cell-based, measles virus.
The subject of data set [21] is wild-type A75/17-CDV strain (A75^neon). It is filed as cell-based, canine distemper virus.
Data set [22] has as its system virions (OP^neon/nLucP). The data set can be described thus: Virucidal effect. To be noted: 1 h at 4°C, then dilution to noninhibitory concentration, Vero-cSLAM. It counts as cell-based, canine distemper virus. How it is done: The virus-compound mixtures were then diluted 10-fold, thereby reaching noninhibitory concentrations. […] Upon inoculation of the diluted mixtures in Vero-cSLAM cells, the viral infectivity was assessed.
OP^neon/nLucP (MOI of 4) was added in a plate containing or not each compound and incubated for 60 min at 4°C. Afterward, the virus and compound mixture was diluted to a noninhibitory drug concentration and added to a monolayer of Vero-cSLAM cells. After 24 h, luminescence was measured using the Nano-Glo live cell assay system (Promega).

For data set [23], the system named is OP^neon/nLucP. Kind of data set: Time-of-addition assay. It is filed as cell-based, canine distemper virus. Conditions: 10 μM, compounds added after 20 h of infection, readout 48 h. How it is done:
To this end, Vero-cSLAM cells were treated with compound 1 at the time of infection or at distinct time points postinfection. In this set of experiments, two previously characterized compounds (compound 3 and ERDRP-0519 [Fig. 1A]) targeting two distinct stages of the viral life cycle (entry and replication, respectively) were added as controls.
Vero-cSLAM cells (96-well plate format) were infected with OP^neon/nLucP at an MOI of 0.04, in the presence of compound 3G (final concentration, 30 μM), ERDRP-0519 (final concentration, 10 μM), or ZHAWO9045 (final concentration 10 μM) added at the indicated time points. Control cells were infected in the presence of equal amounts of DMSO. At 48 h postinfection, luminescence was measured using the Nano-Glo live cell assay system (Promega).

Data set [24] relates to CDV-induced membrane fusion between effector and target cells. The data set can be described thus: Quantitative cell-to-cell fusion assay. It counts as cell-based. Conditions: exclusively at high concentrations. An excerpt: It is assumed that small molecules at high concentrations may lead to aggregation effects or nonspecific binding.
Measurement of membrane fusion between effector and target cells in presence of increasing concentration of either compound 3 or 1. […] Download FIG S4, TIF file, 3.0 MB.

In data set [25] the test system is Vero-cSLAM cells. Kind of data set: Cell viability (cytotoxicity), Vero-cSLAM.
Data set [26] deals with membrane-anchored OP-CDV F-protein (Canine distemper virus, UniProt P12569). The data set can be described thus: Heat shock resistance of prefusion F conformation (flow cytometry). Conditions: heat shock 65°C; compound 3 75 μM, compound 1 10 μM.
The mark [27] stands for this setting: canine distemper virus, 24 h, Table S3, aromatic heterocycles and N-alkylated aminothiazoles, Vero-cSLAM, CDV OP^neon/nLuc, 24 h postinfection, interval in brackets.
Setting [28] is: canine distemper virus, BSR-T7, in Mesocricetus auratus, CDV (OP), Bsr-T7 cells (hamster).
[29] abbreviates: canine distemper virus, CDV (OP), Vero-cSLAM cells.
[30] abbreviates: canine distemper virus, MDCK, in Canis lupus familiaris, CDV (OP), MDCK cells (canine).
Setting [31] is: canine distemper virus, Vero, CDV (OP), Vero cells.
The mark [32] stands for this setting: canine distemper virus, in Canis lupus familiaris, CDV (OP), P114 cells (canine).
Setting [33] is: human respiratory syncytial virus, HEp-2, RSV.
Setting [34] is: canine distemper virus, 24 h, read-out: IC50 (CDV), Table S5, full list, Vero-cSLAM, CDV OP^neon/nLuc, 24 h postinfection, interval in brackets.

SMILES strings stand for the structures. Where two headings read alike, the source gives them in different places.

The IC50 is the concentration that gives 50% inhibition. The term CC50 denotes the concentration giving 50% cytotoxicity. Broadly, the inhibition is the change of the read-out against control, counted positive when it falls.

Chain of CDV polymerase complex (P24658 whole entry): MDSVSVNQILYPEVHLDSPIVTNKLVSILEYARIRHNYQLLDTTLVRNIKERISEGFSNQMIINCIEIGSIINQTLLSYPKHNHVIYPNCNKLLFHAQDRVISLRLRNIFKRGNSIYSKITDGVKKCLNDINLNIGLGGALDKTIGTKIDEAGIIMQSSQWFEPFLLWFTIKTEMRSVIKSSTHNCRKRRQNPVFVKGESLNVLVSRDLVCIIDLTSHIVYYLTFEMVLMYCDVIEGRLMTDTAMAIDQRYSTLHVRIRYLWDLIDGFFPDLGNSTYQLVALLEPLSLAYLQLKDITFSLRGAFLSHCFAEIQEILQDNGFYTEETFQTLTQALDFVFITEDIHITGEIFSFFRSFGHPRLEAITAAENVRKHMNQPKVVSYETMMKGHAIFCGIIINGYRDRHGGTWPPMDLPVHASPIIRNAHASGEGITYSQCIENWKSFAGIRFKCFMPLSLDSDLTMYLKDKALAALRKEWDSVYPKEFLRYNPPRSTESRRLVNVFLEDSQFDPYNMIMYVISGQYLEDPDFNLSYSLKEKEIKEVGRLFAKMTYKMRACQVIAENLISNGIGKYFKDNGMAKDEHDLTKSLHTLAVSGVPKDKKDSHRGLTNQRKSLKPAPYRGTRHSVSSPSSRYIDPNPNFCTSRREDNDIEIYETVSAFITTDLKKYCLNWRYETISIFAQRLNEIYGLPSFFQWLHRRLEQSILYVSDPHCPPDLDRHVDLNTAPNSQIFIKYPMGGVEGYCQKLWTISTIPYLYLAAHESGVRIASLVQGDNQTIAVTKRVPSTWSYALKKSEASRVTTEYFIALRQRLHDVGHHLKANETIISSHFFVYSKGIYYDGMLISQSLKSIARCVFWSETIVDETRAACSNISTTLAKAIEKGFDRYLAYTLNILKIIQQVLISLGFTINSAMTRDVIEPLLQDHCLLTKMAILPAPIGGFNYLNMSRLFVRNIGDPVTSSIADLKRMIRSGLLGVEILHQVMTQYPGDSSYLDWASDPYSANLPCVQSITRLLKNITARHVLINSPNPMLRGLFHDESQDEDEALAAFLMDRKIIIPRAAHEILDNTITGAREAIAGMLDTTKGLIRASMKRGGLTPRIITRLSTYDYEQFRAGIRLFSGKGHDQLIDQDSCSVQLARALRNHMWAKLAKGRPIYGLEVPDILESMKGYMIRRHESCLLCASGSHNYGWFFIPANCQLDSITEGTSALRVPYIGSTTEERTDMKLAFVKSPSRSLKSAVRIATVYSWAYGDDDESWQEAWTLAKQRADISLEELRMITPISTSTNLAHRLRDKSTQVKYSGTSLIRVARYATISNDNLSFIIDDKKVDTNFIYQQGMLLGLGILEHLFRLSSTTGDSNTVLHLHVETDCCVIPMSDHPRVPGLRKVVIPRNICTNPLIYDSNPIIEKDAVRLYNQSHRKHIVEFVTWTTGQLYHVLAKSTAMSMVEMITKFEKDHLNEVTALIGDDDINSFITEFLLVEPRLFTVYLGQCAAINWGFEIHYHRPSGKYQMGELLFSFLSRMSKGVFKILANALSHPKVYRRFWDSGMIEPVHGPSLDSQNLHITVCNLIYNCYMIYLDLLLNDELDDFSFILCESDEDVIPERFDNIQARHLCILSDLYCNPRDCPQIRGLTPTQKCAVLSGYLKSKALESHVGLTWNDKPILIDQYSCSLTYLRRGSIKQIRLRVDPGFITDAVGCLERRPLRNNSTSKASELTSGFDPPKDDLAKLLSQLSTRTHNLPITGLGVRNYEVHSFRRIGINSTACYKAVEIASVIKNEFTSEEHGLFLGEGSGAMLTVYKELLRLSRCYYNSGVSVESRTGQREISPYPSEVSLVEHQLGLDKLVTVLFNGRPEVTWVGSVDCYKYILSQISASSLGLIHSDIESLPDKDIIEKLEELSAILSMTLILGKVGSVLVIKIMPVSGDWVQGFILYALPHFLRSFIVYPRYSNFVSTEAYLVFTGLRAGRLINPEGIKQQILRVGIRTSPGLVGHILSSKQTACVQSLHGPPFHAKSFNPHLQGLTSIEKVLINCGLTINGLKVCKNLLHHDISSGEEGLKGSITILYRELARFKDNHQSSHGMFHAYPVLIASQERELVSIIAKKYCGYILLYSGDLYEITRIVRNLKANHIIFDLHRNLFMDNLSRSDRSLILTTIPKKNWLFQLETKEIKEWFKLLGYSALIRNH
Chain of CDV polymerase complex (P06940 whole entry): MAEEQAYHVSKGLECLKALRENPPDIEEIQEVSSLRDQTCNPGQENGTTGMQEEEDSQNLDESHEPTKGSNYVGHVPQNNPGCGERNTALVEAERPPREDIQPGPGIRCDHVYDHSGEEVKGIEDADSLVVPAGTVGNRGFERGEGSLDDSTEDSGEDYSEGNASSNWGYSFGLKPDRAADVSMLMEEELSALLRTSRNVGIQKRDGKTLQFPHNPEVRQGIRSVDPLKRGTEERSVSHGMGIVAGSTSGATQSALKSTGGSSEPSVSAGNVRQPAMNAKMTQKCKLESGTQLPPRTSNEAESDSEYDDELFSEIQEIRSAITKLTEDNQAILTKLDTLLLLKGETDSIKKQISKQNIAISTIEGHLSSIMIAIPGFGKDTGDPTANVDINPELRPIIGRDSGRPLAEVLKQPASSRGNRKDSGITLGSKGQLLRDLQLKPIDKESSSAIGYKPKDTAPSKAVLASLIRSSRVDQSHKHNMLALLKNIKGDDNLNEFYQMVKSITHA
Chain of membrane-anchored OP-CDV F-protein (P12569 136-224): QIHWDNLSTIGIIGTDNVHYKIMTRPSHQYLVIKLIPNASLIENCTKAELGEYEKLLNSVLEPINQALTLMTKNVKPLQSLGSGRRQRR
Chain of membrane-anchored OP-CDV F-protein (P12569 225-662): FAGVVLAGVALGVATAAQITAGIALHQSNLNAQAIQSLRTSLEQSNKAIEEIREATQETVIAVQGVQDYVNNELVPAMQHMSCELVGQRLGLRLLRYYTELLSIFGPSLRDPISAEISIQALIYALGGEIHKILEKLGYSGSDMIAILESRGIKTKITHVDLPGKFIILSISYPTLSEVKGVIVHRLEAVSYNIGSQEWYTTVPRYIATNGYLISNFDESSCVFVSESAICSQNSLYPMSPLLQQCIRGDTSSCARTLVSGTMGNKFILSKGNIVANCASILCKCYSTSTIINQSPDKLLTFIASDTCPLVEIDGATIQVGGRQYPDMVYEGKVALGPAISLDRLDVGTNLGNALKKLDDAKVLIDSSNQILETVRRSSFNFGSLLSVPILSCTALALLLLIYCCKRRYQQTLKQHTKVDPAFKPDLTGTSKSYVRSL

For the compound `CN(C(=O)COc1cccc2c1OC(C)(C)C2)c1nc2c(s1)CCCC2` [compound 2], the IC50 result was “single-digit nanomolar” in data set [1] (Vero-cSLAM, CDV OP^neon/nLuc, luciferase 24 h postinfection); 0.0084 µM in data set [1] (setting [27]); 0.012 µM in data set [1] (setting [28]); 0.0026 µM in data set [1] (setting [29]); 0.065 µM in data set [1] (setting [30]); 0.003 µM in data set [1] (setting [31]). The IC50 in data set [1] (setting [32]) came out at 0.019 µM; in data set [2] it was 0.0032 µM; in [3], 0.08 µM; in data set [4] (parainfluenza virus 5, Vero) it was 0.015 µM; in data set [5] (setting [33]) it was 0.031 µM. Besides, the CC50 was found to be 52 µM in [6]; 87 µM in data set [7]; 65 µM in [8]; 80 µM in data set [9]; 51 µM in [10]; 54 µM in data set [12]. The “concentration at which impact on cell cycle progression (G1 arrest) is statistically significant” value in data set [11] was 1 µM.

With `CC1(C)Cc2cccc(OCC(=O)Nc3nc4ccccc4s3)c2O1` [compound 1], the IC50 in data set [1] (CDV (OP), Bsr-T7 cells (hamster)) was 7.3 µM; in data set [1] (setting [34]) it was 0.53 µM; in data set [1] (canine distemper virus, 24 h, Vero-cSLAM, CDV OP^neon/nLuc, luciferase 24 h postinfection), 0.52 µM; in [1] (setting [28]), ~7 µM; in [1] (canine distemper virus, CDV (OP), Vero-cNectin-4 cells), 0.43 µM; in data set [1] (setting [29]), ~0.45 µM. In addition, the 50% inhibitory concentration (IC50) in [1] (setting [30]) is 30 µM; in [1] (setting [31]), 0.4 µM; in data set [1] (setting [32]), 2.6 µM; in data set [1] (canine distemper virus, read-out: IC50 values, summary for MeV and CDV) it was 0.2 to 0.7 µM; in data set [2] it was ~0.7 µM; in [13] (NCI-H358), 0.52 µM. Further, the IC50 is 0.25 µM in data set [13] (Vero); 0.37 µM in data set [14]; 7.2 µM in data set [4]; ~7 µM in data set [4] (parainfluenza virus 5, Vero); 5.9 µM in data set [5] (RSV); ~6 µM in data set [5] (setting [33]). Also, the “antiviral activity against VSV” value in [15] is given as “did not display any activity”. Besides, the CC50 in data set [16] stood at 43 µM; in [6], 46 µM; in [7] it was 99 µM; in data set [8], 57 µM; in data set [17], 50 µM; in data set [18], 50 µM. The CC50 in data set [10] was 110 µM; in data set [12] it was 52 µM; in [25] it was ~50 µM. Besides, the inhibition at 10 µM in data set [19] (BSR-T7, read-out: inhibition of polymerase activity in the minigenome assay) is ~50%. Also, in [19], the “effect on minigenome luciferase activity (RdRp complex activity)” value is reported as “sufficient to significantly inhibit the luciferase activity”. Besides, the “effect on MeV polymerase activity (minigenome)” value in [20] is “inhibition of MeV polymerase activity was recorded”. Further, in data set [21] (83-day study, four separate replicates), the “emergence of viral resistance” value is “did not induce any detectable viral resistance”. Moreover, in data set [22], the “inhibitory activity after 10-fold dilution of virus-compound mixture (virucidal activity)” value is “entirely lost its inhibitory activity”. In addition, the time-of-addition inhibition profile entry in data set [23] is listed as “acted like ERDRP-0519”. Also, the “effect on membrane fusion activity” value in [24] is listed as “enhance fusion activity”. Further, the “concentration at which impact on cell cycle progression (G1 arrest) is statistically significant” value in [11] stood at 30 µM. Besides, in data set [26], the “stabilizing effect on prefusion F-trimers” value is listed as “did not”.

With `N#Cc1cccc(NC(=O)Cc2ccccc2)c1` [compound 3, reference compound], the concentration for half-maximal inhibition (IC50) in data set [1] (setting [34]) was determined as 26 µM; in data set [1] (setting [29]) it was 8 µM; in data set [2] it was 6 µM. Moreover, the “effect on minigenome luciferase activity (RdRp complex activity)” value in data set [19] is “luciferase activity remained similar to that for vehicle”. Also, in data set [22], the “inhibitory activity after 10-fold dilution of virus-compound mixture (virucidal activity)” value is “still efficiently prevented viral infectivity even after the dilution step”. In data set [12], this compound yielded a CC50 of 130 µM. Moreover, the “stabilizing effect on prefusion F-trimers” value in data set [26] is on record as “strong stabilizing effect”.

For the compound `Cn1nc(C(F)(F)F)cc1C(=O)Nc1ccc(S(=O)(=O)N2CCCC[C@H]2CCN2CCOCC2)cc1` [ERDRP-0519, reference compound], in data set [21] (stepwise adaptation of A75/17-CDV), the “tolerated dose at the end of adaptation” value is ≥ 30 µM.

In the case of `C#CCCCN(C(=O)COc1cccc2c1OC(C)(C)C2)c1nc2ccccc2s1` [compound 23], in data set [1] (setting [27]), the IC50 was 0.27 µM.
